# Structures can show the parent of a compound that is named as a salt. Where two headings read alike, the source gives them in different places.
# System: dopaminergic neurons
# Procedure: RNAs isolated from NSCs and neurons with and without drug treatments were hybridized to Illumina HumanRef-8 BeadChip (Illumina, Inc., San Diego, Calif., performed by Microarray core facility at the Burnham Institute for Medical Research). The Illumina array data were normalized by the quantile method, and then transformed log 2 ratio values for a zero mean for expression values of each gene across all samples. The statistical and bioinformatics analyses were conducted by using R and the bioconductor package (www.bioconductor.org). The gene set enrichment analysis was conducted using the GSEA software (www.broad.mit.edu/gsea).
# [1] = Amiloride sensitive Na channels, 4 hours of exposure
# [2] = Amine transporters, 4 hours of exposure
# [3] = Ca activated K channels, 4 hours of exposure
# [4] = Calcium channels, 4 hours of exposure
# [5] = Cl channels, 4 hours of exposure
# [6] = Delayed rectifier K channels, 4 hours of exposure
# [7] = H ion transporters, 4 hours of exposure
# [8] = Rectifier K channels, 4 hours of exposure
# [9] = Voltage gated Na channels, 4 hours of exposure
compound,measurement,setting,value
CCCCc1oc2ccccc2c1C(=O)c1cc(I)c(OCCN(CC)CC)c(I)c1 [Amiodarone Hydrochloride],"ACCN1 gene expression, Treated DA Neuron",[1],387.4
same,"ACCN2 gene expression, Treated DA Neuron",[1],862.7
same,"ACCN3 gene expression, Treated DA Neuron",[1],35.7
same,"SLC1A2 gene expression, Treated DA Neuron",[2],809.7
same,"SLC1A3 gene expression, Treated DA Neuron",[2],2926
same,"SLC6A3 gene expression, Treated DA Neuron",[2],23.4
same,"SLC6A9 gene expression, Treated DA Neuron",[2],36570.5
same,"SLC6A12 gene expression, Treated DA Neuron",[2],10.8
same,"ATP1A1 gene expression, Treated DA Neuron","Amine transporters, first line for this gene, 4 hours of exposure",426.9
same,"ATP1A1 gene expression, Treated DA Neuron","Amine transporters, second line for this gene, 4 hours of exposure",471
same,"KCNMB1 gene expression, Treated DA Neuron",[3],44.8
same,"KCNN1 gene expression, Treated DA Neuron",[3],48.4
same,"KCNN2 gene expression, Treated DA Neuron",[3],55.6
same,"KCNN3 gene expression, Treated DA Neuron",[3],181.7
same,"CACNA1A gene expression, Treated DA Neuron",[4],64.4
same,"CACNA1C gene expression, Treated DA Neuron",[4],146.9
same,"CACNB2 gene expression, Treated DA Neuron",[4],155.2
same,"CACNG2 gene expression, Treated DA Neuron",[4],123.8
same,"CLCN2 gene expression, Treated DA Neuron",[5],24
same,"CLCN3 gene expression, Treated DA Neuron",[5],541.2
same,"CLCN6 gene expression, Treated DA Neuron",[5],998.5
same,"CLCN7 gene expression, Treated DA Neuron",[5],1261
same,"CLIC1 gene expression, Treated DA Neuron",[5],22.9
same,"KCNA5 gene expression, Treated DA Neuron",[6],99.9
same,"KCNB1 gene expression, Treated DA Neuron",[6],145.4
same,"KCNB2 gene expression, Treated DA Neuron",[6],94.5
same,"ATP5B gene expression, Treated DA Neuron",[7],5217.1
same,"ATP6V0A2 gene expression, Treated DA Neuron",[7],131.3
same,"ATP6V0D1 gene expression, Treated DA Neuron",[7],2920.7
same,"ATP6V1A gene expression, Treated DA Neuron",[7],2621.5
same,"ATP6V1B2 gene expression, Treated DA Neuron",[7],724.8
same,"SLC2A1 gene expression, Treated DA Neuron",[7],87.1
same,"SLC2A11 gene expression, Treated DA Neuron",[7],.9
same,"SLC35B1 gene expression, Treated DA Neuron",[7],1450.4
same,"KCNC4 gene expression, Treated DA Neuron",[8],58.7
same,"KCND2 gene expression, Treated DA Neuron",[8],269.9
same,"KCNF1 gene expression, Treated DA Neuron",[8],479.7
same,"KCNG1 gene expression, Treated DA Neuron",[8],351
same,"KCNJ4 gene expression, Treated DA Neuron",[8],66.1
same,"KCNJ6 gene expression, Treated DA Neuron",[8],297.7
same,"KCNJ11 gene expression, Treated DA Neuron",[8],44.4
same,"KCNQ3 gene expression, Treated DA Neuron",[8],23.2
same,"KCNQ2 gene expression, Treated DA Neuron","Rectifier K channels, first line for this gene, 4 hours of exposure",1753.5
same,"KCNQ2 gene expression, Treated DA Neuron","Rectifier K channels, second line for this gene, 4 hours of exposure",434.4
same,"SCN1A gene expression, Treated DA Neuron",[9],115.6
same,"SCN3A gene expression, Treated DA Neuron",[9],60.4
same,"SCN9A gene expression, Treated DA Neuron",[9],245.7
same,"AFF1 expression, Treated Neuron",four hours after exposure,1
same,"ARID3A expression, Treated Neuron",four hours after exposure,201
same,"ASCL2 expression, Treated Neuron",four hours after exposure,1
same,"DDIT3 expression, Treated Neuron",four hours after exposure,170
same,"DLX2 expression, Treated Neuron",four hours after exposure,1
same,"E2F2 expression, Treated Neuron",four hours after exposure,63.2
same,"E2F7 expression, Treated Neuron",four hours after exposure,43
same,"E2F8 expression, Treated Neuron",four hours after exposure,1
same,"EGR1 expression, Treated Neuron",four hours after exposure,109
same,"EGR2 expression, Treated Neuron",four hours after exposure,1
same,"ELF4 expression, Treated Neuron",four hours after exposure,1
same,"ELF5 expression, Treated Neuron",four hours after exposure,1
same,"ELK3 expression, Treated Neuron",four hours after exposure,1
same,"ELK4 expression, Treated Neuron",four hours after exposure,1
same,"EN1 expression, Treated Neuron",four hours after exposure,1
same,"ERG expression, Treated Neuron",four hours after exposure,1
same,"ETS1 expression, Treated Neuron",four hours after exposure,1
same,"ETV1 expression, Treated Neuron",four hours after exposure,1
same,"ETV4 expression, Treated Neuron",four hours after exposure,1
same,"FLI1 expression, Treated Neuron",four hours after exposure,11.3
same,"FOS expression, Treated Neuron",four hours after exposure,1980
same,"FOSB expression, Treated Neuron",four hours after exposure,346
same,"FOXA2 expression, Treated Neuron",four hours after exposure,1
same,"FOXC1 expression, Treated Neuron",four hours after exposure,32.6
same,"FOXD1 expression, Treated Neuron",four hours after exposure,1
same,"FOXF2 expression, Treated Neuron",four hours after exposure,1
same,"FOXL2 expression, Treated Neuron",four hours after exposure,1
same,"FOXM1 expression, Treated Neuron",four hours after exposure,27.7
same,"GATA2 expression, Treated Neuron",four hours after exposure,1
same,"GLI2 expression, Treated Neuron",four hours after exposure,5.2
same,"HCLS1 expression, Treated Neuron",four hours after exposure,1
same,"HEY2 expression, Treated Neuron",four hours after exposure,1
same,"HIRA expression, Treated Neuron",four hours after exposure,24.2
same,"HMGB2 expression, Treated Neuron",four hours after exposure,163
same,"HOXA13 expression, Treated Neuron",four hours after exposure,1
same,"HOXB1 expression, Treated Neuron",four hours after exposure,1
same,"HOXB2 expression, Treated Neuron",four hours after exposure,24
same,"HOXB3 expression, Treated Neuron",four hours after exposure,1
same,"HOXB4 expression, Treated Neuron",four hours after exposure,1
same,"HOXB5 expression, Treated Neuron",four hours after exposure,1
same,"HOXD3 expression, Treated Neuron",four hours after exposure,1
same,"L3MBTL expression, Treated Neuron",four hours after exposure,97.7
same,"LHX8 expression, Treated Neuron",four hours after exposure,1
same,"MEF2C expression, Treated Neuron",four hours after exposure,49.8
same,"MEOX1 expression, Treated Neuron",four hours after exposure,1
same,"MSX2 expression, Treated Neuron",four hours after exposure,1
same,"MYEF2 expression, Treated Neuron",four hours after exposure,25.3
same,"NFATC3 expression, Treated Neuron",four hours after exposure,1
same,"NFATC4 expression, Treated Neuron",four hours after exposure,1
same,"NFKB2 expression, Treated Neuron",four hours after exposure,5.3
same,"NR1D2 expression, Treated Neuron",four hours after exposure,1
same,"NR2C2 expression, Treated Neuron",four hours after exposure,5.7
same,"NR4A2 expression, Treated Neuron",four hours after exposure,212
same,"NRK expression, Treated Neuron",four hours after exposure,1
same,"PAX8 expression, Treated Neuron",four hours after exposure,1
same,"PBX2 expression, Treated Neuron",four hours after exposure,1
same,"PRDM1 expression, Treated Neuron",four hours after exposure,1
same,"PRRX2 expression, Treated Neuron",four hours after exposure,1
same,"RELB expression, Treated Neuron",four hours after exposure,31.9
same,"RUNX1 expression, Treated Neuron",four hours after exposure,1
same,"SALL1 expression, Treated Neuron",four hours after exposure,1
same,"SIX4 expression, Treated Neuron",four hours after exposure,5.7
same,"STAT6 expression, Treated Neuron",four hours after exposure,1
same,"TAF5L expression, Treated Neuron",four hours after exposure,17.5
same,"TAF13 expression, Treated Neuron",four hours after exposure,1
same,"TBX2 expression, Treated Neuron",four hours after exposure,1
same,"TEAD4 expression, Treated Neuron",four hours after exposure,1
same,"TEF expression, Treated Neuron",four hours after exposure,23.5
same,"TGIF1 expression, Treated Neuron",four hours after exposure,1
same,"TP53 expression, Treated Neuron",four hours after exposure,23.7
same,"ZNF85 expression, Treated Neuron",four hours after exposure,5.6
same,"ZNF197 expression, Treated Neuron",four hours after exposure,5.1
same,"ZNF274 expression, Treated Neuron",four hours after exposure,1
same,"ZNF367 expression, Treated Neuron",four hours after exposure,1
same,"ZSCAN29 expression, Treated Neuron",four hours after exposure,1
